# How the values were obtained:
# Assay in all cases: relative viability (nuclei count vs DMSO), 5 days (fraction); higher = more cells survive
# [1] = compound: CC(C)C[C@H](NC(=O)[C@H](Cc1ccccc1)NC(=O)c1cnccn1)B(O)O [Bortezomib]
# How it was run: (§1)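 Viability was read as treated-well nuclei divided by vehicle-well nuclei, using the median across plates. Lung cancer cell lines in 1536-well plates were kept overnight at 37 °C, pinned with five √10-spaced library-drug doses, and after 5 days were Hoechst-stained, imaged at 4× and counted in MetaXpress. Plates passed only with control CV below 25% and at least one doubling.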
# [2] = compound: CC1=CC(=NN1)NC2=CC(=NC(=N2)/C=C/C3=CC=CC=C3)N4CCN(CC4)C
# How it was run: as §1
# [3] = compound: COC1=CC(c2cc3ccccc3[nH]2)=N/C1=C\c1[nH]c(C)cc1C [Obatoclax]
# How it was run: as §1
cell line,measurement,setting,value
NCI-H650,relative viability,[1]; 0.000632 µM,0.97
same,relative viability,[1]; 0.002 µM,1.03
same,relative viability,"[1]; 0.002 µM, anchor plate",0.902
same,relative viability,[1]; 0.006325 µM,0.689
same,relative viability,[1]; 0.02 µM,0.281
same,relative viability,[2]; 0.08 µM,0.701
same,relative viability,[2]; 0.253 µM,1.15
same,relative viability,[2]; 0.8 µM,1.1
same,relative viability,[2]; 2.53 µM,0.492
same,relative viability,[2]; 8 µM,0.208
same,relative viability,[3]; 0.01 µM,1.02
same,relative viability,[3]; 0.03162 µM,0.765
same,relative viability,[3]; 0.3162 µM,0.742
same,relative viability,[3]; 1 µM,0.445

# Reference: the supplement of paper PMC10307832
